From ChEMBL document CHEMBL1143033, “Nodulisporol and Nodulisporone, novel specific inhibitors of human DNA polymerase lambda from a fungus, Nodulisporium sp” (Bioorg Med Chem, 2007) come the findings set out here.

The nature of assay [1]: Inhibition of calf DNA polymerase alpha. Also noted: species or system Bos taurus.
For a further assay, the target named is DNA polymerase beta (Rattus norvegicus, UniProt P06766). The assay is described as follows: Inhibition of rat DNA polymerase beta.
Assay [2] can be described thus: Inhibition of human DNA polymerase gamma.
Assay [3] has as its target T1, DNA polymerase delta catalytic subunit (Homo sapiens, UniProt P28340).
T1 sequence (P28340 whole entry): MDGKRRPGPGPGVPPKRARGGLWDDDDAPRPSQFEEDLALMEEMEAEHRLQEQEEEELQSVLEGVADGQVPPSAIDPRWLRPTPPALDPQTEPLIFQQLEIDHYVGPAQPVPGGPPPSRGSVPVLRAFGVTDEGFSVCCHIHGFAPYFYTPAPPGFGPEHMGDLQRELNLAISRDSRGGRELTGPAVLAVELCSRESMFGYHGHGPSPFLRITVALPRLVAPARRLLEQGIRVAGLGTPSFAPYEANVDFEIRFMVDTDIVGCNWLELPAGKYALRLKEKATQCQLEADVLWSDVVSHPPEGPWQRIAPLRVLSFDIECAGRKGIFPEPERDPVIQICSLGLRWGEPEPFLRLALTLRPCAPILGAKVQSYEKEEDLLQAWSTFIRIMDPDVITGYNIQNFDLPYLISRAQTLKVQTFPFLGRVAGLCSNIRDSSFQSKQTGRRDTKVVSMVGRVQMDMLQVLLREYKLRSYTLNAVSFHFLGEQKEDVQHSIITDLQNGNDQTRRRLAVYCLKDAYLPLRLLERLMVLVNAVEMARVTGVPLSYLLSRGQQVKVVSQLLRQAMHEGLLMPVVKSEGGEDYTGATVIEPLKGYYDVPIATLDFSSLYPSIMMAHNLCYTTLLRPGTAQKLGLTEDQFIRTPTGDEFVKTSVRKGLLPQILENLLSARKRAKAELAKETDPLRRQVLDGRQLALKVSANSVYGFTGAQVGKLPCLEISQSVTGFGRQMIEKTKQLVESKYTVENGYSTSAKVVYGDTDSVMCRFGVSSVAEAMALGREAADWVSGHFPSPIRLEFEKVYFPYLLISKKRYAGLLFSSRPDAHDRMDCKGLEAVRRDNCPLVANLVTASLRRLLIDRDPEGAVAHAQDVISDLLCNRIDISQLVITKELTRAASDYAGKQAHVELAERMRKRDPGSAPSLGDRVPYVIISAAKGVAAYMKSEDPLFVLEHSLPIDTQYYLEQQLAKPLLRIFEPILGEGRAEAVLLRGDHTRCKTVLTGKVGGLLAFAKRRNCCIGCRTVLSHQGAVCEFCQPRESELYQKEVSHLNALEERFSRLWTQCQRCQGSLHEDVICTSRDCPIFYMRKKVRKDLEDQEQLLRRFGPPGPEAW
The assay is described as follows: Inhibition of human DNA polymerase delta.

Assay [4] is described as follows: Inhibition of human DNA polymerase epsilon.
For another assay, the target named is T2, DNA polymerase lambda (Homo sapiens, UniProt Q9UGP5).
T2 sequence (Q9UGP5 whole entry): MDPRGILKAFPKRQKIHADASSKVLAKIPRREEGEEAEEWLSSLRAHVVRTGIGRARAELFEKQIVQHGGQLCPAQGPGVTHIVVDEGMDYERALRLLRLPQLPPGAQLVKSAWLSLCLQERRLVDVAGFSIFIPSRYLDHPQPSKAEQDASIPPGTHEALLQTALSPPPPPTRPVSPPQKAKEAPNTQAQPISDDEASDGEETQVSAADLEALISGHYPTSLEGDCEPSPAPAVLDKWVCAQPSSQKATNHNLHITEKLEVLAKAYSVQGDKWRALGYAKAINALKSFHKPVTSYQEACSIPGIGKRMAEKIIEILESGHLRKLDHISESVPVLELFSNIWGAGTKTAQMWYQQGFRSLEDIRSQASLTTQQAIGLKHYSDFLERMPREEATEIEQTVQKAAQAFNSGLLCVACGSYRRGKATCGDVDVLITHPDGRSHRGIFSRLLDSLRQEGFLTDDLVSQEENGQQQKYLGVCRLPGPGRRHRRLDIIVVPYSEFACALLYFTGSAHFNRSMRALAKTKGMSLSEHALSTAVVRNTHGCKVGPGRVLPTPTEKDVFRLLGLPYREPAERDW
The experiment in a line: Inhibition of human DNA polymerase lambda.

By IC50 is commonly meant the midpoint of a concentration-inhibition curve. For the molecule `COc1cc(O)c2c(=O)c(CO)c(C)oc2c1`, the IC50 is over 1 mM in assay [1]; over 1 mM on DNA polymerase beta; over 1 mM in assay [2]; over 1 mM in assay [3]; over 1 mM in assay [4]; 0.454 mM against DNA polymerase lambda.

As for `CC1Cc2c(C=O)ccc(O)c2C(=O)O1` (configuration not stated), the concentration for half-maximal inhibition (IC50) in assay [1] is over 1 mM; against DNA polymerase beta, over 1 mM; in assay [2], over 1 mM; in assay [3], over 1 mM; in assay [4] it was over 1 mM; against DNA polymerase lambda, 0.275 mM.

Take `COc1ccc(C)c2c1C(=O)OC(C)C2` (configuration not stated): the IC50 in assay [1] was over 1 mM; at DNA polymerase beta, over 1 mM; in assay [2], over 1 mM; in assay [3] it was over 1 mM; in assay [4] it was over 1 mM; at DNA polymerase lambda it was 0.049 mM.

Consider `COc1cccc2c1C(=O)OC(C)C2` (configuration not stated), for which the half-maximal inhibitory concentration (IC50) in assay [1] was over 1 mM; against DNA polymerase beta, over 1 mM; in assay [2], over 1 mM; in assay [3] it was over 1 mM; in assay [4] it was over 1 mM; on DNA polymerase lambda, 0.18 mM.

As for `CC1Cc2cccc(O)c2C(=O)O1` (configuration not stated) [MELLEIN], the 50% inhibitory concentration (IC50) in assay [1] was over 1 mM; on DNA polymerase beta, over 1 mM; in assay [2] it was over 1 mM; in assay [3], over 1 mM; in assay [4], over 1 mM; on DNA polymerase lambda, 0.316 mM.

Regarding `COc1cccc2c1C(O)CCC2O` (configuration not stated) [NODULISPOROL], the IC50 was over 1 mM in assay [1]; over 1 mM on DNA polymerase beta; over 1 mM in assay [2]; over 1 mM in assay [3]; over 1 mM in assay [4]; 0.168 mM at DNA polymerase lambda.

Turning to `COc1cccc2c1C(=O)CCC2O` (configuration not stated) [NODULISPORONE], the IC50 in assay [1] is over 1 mM; against DNA polymerase beta it was over 1 mM; in assay [2], over 1 mM; in assay [3], over 1 mM; in assay [4], over 1 mM; against DNA polymerase lambda it was 0.082 mM.
